#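 GI50 = concentration required for 50% inhibition of growth. At the TGI there is no net growth.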
# Key:
# Assay in all cases: NCI anticancer screen, dose series, 384-well format
# [1] = test system: HCT-116 colon
# [2] = test system: RXF 393 renal
# [3] = test system: MCF7 breast
# [4] = test system: NCI-H226 lung
# [5] = test system: MDA-MB-231 breast
# [6] = test system: EKVX NSCLC
# [7] = test system: T-47D breast
# [8] = test system: DU-145 prostate
# [9] = test system: SF-268 CNS
# [10] = test system: SF-539 CNS
# [11] = test system: UO-31 renal
# [12] = test system: 786-0 renal
# [13] = test system: OVCAR-4 ovarian
# [14] = test system: SF-295 CNS
# [15] = test system: PC-3 prostate
# [16] = test system: MOLT-4 leukemia
# [17] = test system: COLO 205 colon
# [18] = test system: ACHN renal
# [19] = test system: SNB-19 CNS
# [20] = test system: HOP-62 NSCLC
# [21] = test system: MDA-MB-435 melanoma
# [22] = test system: SK-MEL-5 melanoma
# [23] = test system: BT-549 breast
# [24] = test system: HOP-92 NSCLC
# [25] = test system: SW-620 colon
# [26] = test system: OVCAR-5 ovarian
# [27] = test system: HS 578T breast
# [28] = test system: MDA-MB-468 breast
smiles,measurement,setting,value
COc1cc2c(N3CCN(C(=O)Nc4ccc(OC(C)C)cc4)CC3)ncnc2cc1OCCCN1CCCCC1,TGI,[1],21.6 µM
same,GI50,[2],2.82 µM
same,TGI,[2],9.78 µM
same,GI50,[3],3.18 µM
same,TGI,[3],15.1 µM
same,GI50,[4],7.66 µM
same,TGI,[4],21.5 µM
same,GI50,[5],13.6 µM
same,TGI,[5],31.4 µM
same,GI50,[6],5.21 µM
same,TGI,[6],19.5 µM
same,GI50,[7],10.4 µM
same,TGI,[7],22.3 µM
same,GI50,[8],12.5 µM
same,TGI,[8],26.3 µM
same,GI50,[9],8.64 µM
same,TGI,[9],21.1 µM
same,GI50,[10],1.84 µM
same,TGI,[10],16.4 µM
same,GI50,[11],16.4 µM
same,TGI,[11],30.1 µM
same,GI50,[12],8.32 µM
same,TGI,[12],20.7 µM
same,GI50,[13],13.9 µM
same,TGI,[13],30.5 µM
same,GI50,[14],11.5 µM
same,TGI,[14],23.8 µM
same,GI50,[15],10.8 µM
same,TGI,[15],24 µM
same,GI50,[16],2.61 µM
same,TGI,[16],5.95 µM
same,GI50,[17],12.1 µM
same,TGI,[17],24.7 µM
same,GI50,[18],9.76 µM
same,TGI,[18],22.6 µM
same,GI50,[19],16 µM
same,TGI,[19],41.6 µM
same,GI50,[20],7.62 µM
same,TGI,[20],21.1 µM
same,GI50,[21],13 µM
same,TGI,[21],25.9 µM
same,GI50,[22],9 µM
same,TGI,[22],21.1 µM
same,GI50,[23],8.6 µM
same,TGI,[23],20.8 µM
same,GI50,[24],9.13 µM
same,TGI,[24],21.3 µM
same,GI50,[25],10.9 µM
same,TGI,[25],23.1 µM
same,GI50,[26],13.1 µM
same,TGI,[26],35 µM
same,GI50,[27],4.87 µM
same,TGI,[27],17.9 µM
same,GI50,[28],3.91 µM
same,TGI,[28],14.5 µM

# From PubChem BioAssay (NCI)
